These results are taken from ChEMBL document CHEMBL5380875, “Discovery of a Potent and Oral Available Complex I OXPHOS Inhibitor That Abrogates Tumor Growth and Circumvents MEKi Resistance” (J Med Chem, 2023).

The source made the active and inactive calls. The calls are words filed in the database; no cut-off is given here. Where only a bound is given, the exact number is not on record here.

Assay [1] concerns NCI-H460. Kind of assay: Inhibition of mitochondrial complex I NADH-ubiquinone oxidoreductase in human NCI-H460 cells at 1 uM incubated for 12 hrs by seahorse XF96 metabolic flux analyzer relative to control. The assay is classed as cell-based.
Assay [2] has as its system NCI-H460. Kind of assay: Inhibition of mitochondrial complex II in human NCI-H460 cells at 1 uM incubated for 12 hrs by seahorse XF96 metabolic flux analyzer relative to control. Type of assay: cell-based.
In assay [3] the test system is NCI-H460. The assay is described as follows: Inhibition of mitochondrial complex III in human NCI-H460 cells at 1 uM incubated for 12 hrs by seahorse XF96 metabolic flux analyzer relative to control. The assay is classed as cell-based.
Assay [4] relates to NCI-H460. The assay is described as follows: Inhibition of mitochondrial complex IV in human NCI-H460 cells at 1 uM incubated for 12 hrs by seahorse XF96 metabolic flux analyzer relative to control. The assay is classed as cell-based.
Assay [5] has as its system NCI-H460. The assay is described as follows: Inhibition of mitochondrial complex I NADH-ubiquinone oxidoreductase in human NCI-H460 cells assessed as reduction in NAD+/NADH ratio at 1 uM incubated for 12 hrs by WST-8 method relative to control. The assay is classed as cell-based.
Assay [6] deals with NCI-H460. Kind of assay: Antiproliferative activity against human NCI-H460 cells with high-OXPHOS assessed as reduction in cell viability incubated for 5 days by CellTiter 96 cell proliferation assay. As to conditions: NCI-H460, 120 h. The assay is classed as functional, cell-based.
The test system of assay [7] is NCI-H358. The assay is described as follows: Antiproliferative activity against human NCI-H358 cells with low-OXPHOS assessed as reduction in cell viability incubated for 5 days by CellTiter 96 cell proliferation assay. The assay is classed as functional, cell-based. As to conditions: NCI-H358, 120 h.
Assay [8] deals with NCI-H460. Kind of assay: Inhibition of mitochondrial complex I NADH-ubiquinone oxidoreductase in human NCI-H460 cells assessed as reduction in oxygen consumption rate at 1 uM incubated for 12 hrs in presence of medium supplemented with pyruvate by seahorse XF96 metabolic flux analyzer. Type of assay: cell-based.
The subject of assay [9] is NCI-H460. Kind of assay: Inhibition of mitochondrial complex I NADH-ubiquinone oxidoreductase in human NCI-H460 cells assessed as reduction in oxygen consumption rate at 1 uM incubated for 12 hrs in presence of medium supplemented with malate by seahorse XF96 metabolic flux analyzer. The assay is classed as cell-based.
Assay [10] deals with NCI-H460. The assay is described as follows: Inhibition of mitochondrial complex I NADH-ubiquinone oxidoreductase in human NCI-H460 cells assessed as reduction in oxygen consumption rate at 1 uM incubated for 12 hrs in presence of medium supplemented with succinate by seahorse XF96 metabolic flux analyzer. The assay is classed as cell-based.
The test system of assay [11] is NCI-H460. Kind of assay: Inhibition of mitochondrial complex I NADH-ubiquinone oxidoreductase in human NCI-H460 cells assessed as reduction in NAD+/NADH ratio at 1 uM incubated for 12 hrs by WST-8 method. The assay is classed as cell-based. In general terms: Tetrazolium assays rely on reduction of a dye to a coloured formazan, in cell work by metabolically active cells.

Assay [12] has as its system NCI-H441. The assay is described as follows: Antiproliferative activity against human NCI-H441 cells with high-OXPHOS assessed as reduction in cell viability incubated for 5 days by CellTiter 96 cell proliferation assay. The assay is classed as functional, cell-based. As to conditions: NCI-H441, 120 h.
Assay [13] relates to NCI-H460. The assay is described as follows: Inhibition of colony formation in human NCI-H460 cells with high-OXPHOS incubated for 7 days by crystal violet staining based analysis. As to conditions: dose 250-1000 nM, time 7.0 day. Type of assay: functional, cell-based.
Assay [14] concerns NCI-H441. Kind of assay: Inhibition of colony formation in human NCI-H441 cells with high-OXPHOS incubated for 7 days by crystal violet staining based analysis. Type of assay: functional, cell-based. The following applies: dose 250-1000 nM, time 7.0 day.
Assay [15] relates to NCI-H358. Kind of assay: Inhibition of colony formation in human NCI-H358 cells low-OXPHOS at 250 to 1000 nM incubated for 7 days by crystal violet staining based analysis. Type of assay: functional, cell-based. As to conditions: dose 250-1000 nM, time 7.0 day.

What is called inhibition is the change of the read-out against control, counted positive when it falls. `Cc1nnn(Cc2ccc(C(=O)Nc3ccc(F)cc3)nc2)c1C(=O)N1CCN(Cc2ccc(OCC(F)(F)F)cc2)CC1`: the inhibition in assay [1] worked out at 9%.
A word on the IC50: it is the concentration that inhibits the measured activity by half. On to `Cc1c(C(=O)N2CCN(Cc3ccc(OCC(F)(F)F)cc3)CC2)nnn1Cc1ccc(C(=O)Nc2ccc(Br)cc2)nc1`, for which the inhibition in assay [1] came out at 66%; in assay [2], 22.5%; in [3], 33.7%; in assay [4], 20%; in [5], 62.6%. Besides, the figures for the 50% inhibitory concentration (IC50) in [6] and in [7] were 0.0055 µM and 0.45 µM, respectively.
Consider `Cc1c(C(=O)N2CCN(Cc3ccc(OC(F)(F)F)cc3)CC2)nnn1Cc1ccc(C(=O)Nc2ccc(C(F)(F)F)cc2)nc1`, for which the inhibition in assay [1] was found to be 50.5%.
Turning to `Cc1c(C(=O)N2CCN(Cc3ccc(Cl)cc3)CC2)nnn1Cc1ccc(C(=O)Nc2ccc(C(F)(F)F)cc2)nc1`, the inhibition in assay [1] amounted to 20.4%; in assay [2], 6.8%; in [3], 3.5%; in [4], 8.9%.
As to `O=C(Nc1ccc(C(F)(F)F)cc1)c1ccc(Cn2nnc(C(=O)N3CCN(Cc4ccc(OCC(F)(F)F)cc4)CC3)c2C(F)(F)F)cn1`, the inhibition in assay [1] was found to be 59.3%; in assay [2] it was 4.7%; in [3] it was 12.1%; in [4], 1.6%; in assay [5], 85.1%. For the same compound, the IC50 in [6] was determined as 0.0038 µM; in assay [7], 0.605 µM.
As to `O=C(Nc1ccc(C(F)(F)F)cc1)c1ccc(Cn2cc(C(=O)N3CCN(Cc4ccc(OCC(F)(F)F)cc4)CC3)nn2)cn1`, the inhibition in [1] is 52%; in assay [2], 7.4%; in assay [3] it was 26%; in assay [4] it was -2%; in assay [5], 65.7%. Besides, the IC50 in [6] stood at 0.0106 µM; in assay [7] it was 0.588 µM.
`CCN1CCN(C(=O)c2nnn(Cc3ccc(C(=O)Nc4ccc(C(F)(F)F)cc4)nc3)c2C)CC1`: the inhibition in assay [1] was -4.1%.
Still for that read-out and setting: then `CCNC(=O)c1ccc(Cn2nnc(C(=O)N3CCN(Cc4ccc(OCC(F)(F)F)cc4)CC3)c2C)cn1`, with 36.3%.
For the compound `COc1ccc(NC(=O)c2ccc(Cn3nnc(C(=O)N4CCN(Cc5ccc(OCC(F)(F)F)cc5)CC4)c3C)cn2)cc1`, in assay [1], the inhibition turned out to be 49.2%.
The same measure, in the same setting: under `Cc1c(C(=O)N2CCN(C(=O)c3ccc(OC(F)(F)F)cc3)CC2)nnn1Cc1ccc(C(=O)Nc2ccc(C(F)(F)F)cc2)nc1` stands 43.8%; under `Cc1c(C(=O)N2CCN(Cc3ccc(OCC(F)(F)F)cc3)CC2)nnn1Cc1ccc(C(=O)Nc2ccccc2C(F)(F)F)nc1`, 36.3%; under `Cc1ccc(CN2CCN(C(=O)c3nnn(Cc4ccc(C(=O)Nc5ccc(C(F)(F)F)cc5)nc4)c3C)CC2)cc1`, 38.1%.
Take `Cc1c(C(=O)N2CCN(Cc3ccc(OCC(F)(F)F)cc3)CC2)nnn1Cc1ccc(C(=O)Nc2ccc(OC(F)(F)F)cc2)nc1`: the inhibition in assay [1] is 58.4%; in [2], 8.8%; in [3], 9%; in assay [4], -6.7%; in [5] it was 74.2%. Further, the 50% inhibitory concentration (IC50) in assay [6] stood at 0.0063 µM; in [7], 0.856 µM.
In the case of `Cc1c(C(=O)N2CCN(Cc3ccc(OCC(F)(F)F)cc3)CC2)nnn1Cc1ccc(C(=O)NC2CCOCC2)nc1`, in assay [1], the inhibition is 10.5%.
On the same count and under the same terms, under `Cc1nnn(Cc2ccc(C(=O)Nc3ccc(Br)cc3)nc2)c1C(=O)N1CCN(Cc2ccc(OCC(F)(F)F)cc2)CC1` stands 7.7%.
Take `O=C(Nc1ccc(C(F)(F)F)cc1)c1ccc(Cn2nnc(C(=O)N3CCN(Cc4ccc(OCC(F)(F)F)cc4)CC3)c2-c2ccccc2)cn1`: in [1], the inhibition worked out at 12.6%.
Regarding `Cc1c(C(=O)N2CCN(Cc3ccc(OCC(F)(F)F)cc3)CC2)nnn1Cc1ccc(C(=O)Nc2ccc3ccccc3c2)nc1`, the inhibition turned out to be 52.3% in [1]; 7% in [2]; 11% in assay [3]; 3.9% in [4]; 57.9% in assay [5]. The figures for the IC50 in [6] and in assay [7] were 0.0256 µM and over 1 µM, respectively.
Regarding `Cc1c(C(=O)N2CCN(Cc3ccc(OCC(F)(F)F)cc3)CC2)nnn1Cc1ccc(C(=O)Nc2cccc(C(F)(F)F)c2)nc1`, the inhibition in assay [1] was 41.2%; in [2], 1.2%; in assay [3] it was 14%; in assay [4], -0.1%; in [5] it was 39.1%; in [13], “Dose-Dependent Effect”. Besides, in assay [14], the inhibition entry is “Dose-Dependent Effect”. In addition, the inhibition entry in [8], in [9] and in assay [11] was “Active” throughout. The inhibition entry in [10] and in assay [15] was “inactive” each time. In addition, the IC50 in assay [6] is 0.257 µM; in assay [12] it was 0.169 µM; in assay [7] it was over 10 µM.
For the compound `Cc1c(C(=O)N2CCN(Cc3ccc(C(C)C)cc3)CC2)nnn1Cc1ccc(C(=O)Nc2ccc(C(F)(F)F)cc2)nc1`, the inhibition in assay [1] stood at 36.7%.
On to `Cc1c(C(=O)N2CCN(C)CC2)nnn1Cc1ccc(C(=O)Nc2ccc(C(F)(F)F)cc2)nc1`, for which the inhibition is 11.5% in assay [1] and -1.2% in assay [2].
With `Cc1ccc(NC(=O)c2ccc(Cn3nnc(C(=O)N4CCN(Cc5ccc(OCC(F)(F)F)cc5)CC4)c3C)cn2)cc1`, the inhibition in assay [1] came out at 47.9%.
For the compound `Cc1c(C(=O)N2CCN(Cc3ccc(OCC(F)(F)F)cc3)CC2)nnn1Cc1ccc(C(=O)Nc2ccc(F)cc2)nc1`, the inhibition in assay [1] is 54.2%; in assay [2], 9.4%; in assay [3], 2.6%; in [4], 26.6%; in assay [5], 72.5%. Further, the figures for the IC50 in assay [6] and in [7] were 0.0117 µM and over 1 µM, respectively.
Turning to `Cc1c(C(=O)N2CCN(Cc3cccc(OCC(F)(F)F)c3)CC2)nnn1Cc1ccc(C(=O)Nc2ccc(C(F)(F)F)cc2)nc1`, in [1], the inhibition came out at 49.9%.
On to `Cc1c(C(=O)N2CCN(Cc3ccccc3)CC2)nnn1Cc1ccc(C(=O)Nc2ccc(C(F)(F)F)cc2)nc1`, for which the inhibition in [1] turned out to be 10.4%.
On to `Cc1c(C(=O)N2CCN(S(C)(=O)=O)CC2)nnn1Cc1ccc(C(=O)Nc2ccc(C(F)(F)F)cc2)nc1`, for which the inhibition in assay [1] worked out at 20.4%.
The same measure, in the same setting: then `Cc1c(C(=O)N2CCN(Cc3ccc(OCC(F)(F)F)cc3)CC2)nnn1Cc1ccc(C(=O)Nc2ccc(C(C)(C)C)cc2)nc1`, with 45%; and `Cc1c(C(=O)N2CCN(Cc3ccccc3OCC(F)(F)F)CC2)nnn1Cc1ccc(C(=O)Nc2ccc(C(F)(F)F)cc2)nc1`, with 6.7%; and `CCc1c(C(=O)N2CCN(Cc3ccc(OCC(F)(F)F)cc3)CC2)nnn1Cc1ccc(C(=O)Nc2ccc(C(F)(F)F)cc2)nc1`, with 42.6%.
In the case of `Cc1c(C(=O)N2CCN(Cc3ccc(OCC(F)(F)F)cc3)CC2)nnn1Cc1ccc(C(=O)NCC(C)C)nc1`, the inhibition in assay [1] came out at 5.6%.
The same measure, in the same setting: under `Cc1nnn(Cc2ccc(C(=O)Nc3ccc(C(F)(F)F)cc3)nc2)c1C(=O)N1CCN(Cc2ccc(OCC(F)(F)F)cc2)CC1` stands 15.7%.
On to `Cc1c(C(=O)N2CCN(Cc3ccc(C(C)(C)C)cc3)CC2)nnn1Cc1ccc(C(=O)Nc2ccc(C(F)(F)F)cc2)nc1`, for which the inhibition in assay [1] was 50.5%; in assay [2], -0.9%; in assay [3] it was 17.8%; in assay [4], 12.2%; in [5] it was 73.2%. The IC50 in assay [6] is 0.0078 µM; in [7] it was over 1 µM.
Turning to `Cc1nnn(Cc2ccc(C(=O)Nc3ccc(OC(F)(F)F)cc3)nc2)c1C(=O)N1CCN(Cc2ccc(OCC(F)(F)F)cc2)CC1`, in assay [1], the inhibition turned out to be 20.4%.
Consider `Cc1c(C(=O)N2CCN(Cc3ccc(OCC(F)(F)F)cc3)CC2)nnn1Cc1ccc(C(=O)Nc2ccc(Cl)cc2)nc1`, for which the inhibition in assay [1] amounted to 60.1%; in assay [2], 13.5%; in assay [3] it was 30.3%; in assay [4] it was 26%; in assay [5], 72.5%. Moreover, the IC50 in assay [6] is 0.0076 µM; in assay [7], over 1 µM.
